In patent publication US10968178B2, “IP6K inhibitors” (TAKEDA PHARMACEUTICAL COMPANY LIMITED, priority 2017, dated 2021):

Legend:
Format in all cases: biochemical
human IP6K1 = target: T1, human IP6K1 (Homo sapiens, UniProt Q92551); experiment: IP6K enzyme inhibitory assay (ADP-Glo Kinase Assay), human IP6K1; conditions: compound concentration 0.1 μM; read-out: ADP-Glo method inhibitory rate (%) human IP6K1
T1 construct: human IP6K1 (1-441) gene; GST; made in house; host or cells: Sf-9 insect cells
Method in brief: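 Inhibition of human IP6K1 was determined with Promega's ADP-Glo Kinase Assay in 384 well plates. Test compound diluted in assay buffer (20 mM HEPES (pH 7.5), 6 mM MgCl2, 0.01% Tween-20, 1 mM DTT) was added at 2 μL, then 2 μL of enzyme started the reaction for 60 min at room temperature. Next came 3 μL ADP-Glo solution for 30 min and 6 μL Kinase-Detection solution for 60 min. Luminescence was read on an Envision plate reader.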

human IP6K2 = target: T2, human IP6K2 (Homo sapiens, UniProt Q9UHH9); experiment: IP6K enzyme inhibitory assay (ADP-Glo Kinase Assay), human IP6K2; conditions: compound concentration 0.1 μM; read-out: ADP-Glo method inhibitory rate (%) human IP6K2
T2 construct: human IP6K2 (1-426) gene; GST; made in house; host or cells: Sf-9 insect cells
T2 sequence (Q9UHH9 1-426): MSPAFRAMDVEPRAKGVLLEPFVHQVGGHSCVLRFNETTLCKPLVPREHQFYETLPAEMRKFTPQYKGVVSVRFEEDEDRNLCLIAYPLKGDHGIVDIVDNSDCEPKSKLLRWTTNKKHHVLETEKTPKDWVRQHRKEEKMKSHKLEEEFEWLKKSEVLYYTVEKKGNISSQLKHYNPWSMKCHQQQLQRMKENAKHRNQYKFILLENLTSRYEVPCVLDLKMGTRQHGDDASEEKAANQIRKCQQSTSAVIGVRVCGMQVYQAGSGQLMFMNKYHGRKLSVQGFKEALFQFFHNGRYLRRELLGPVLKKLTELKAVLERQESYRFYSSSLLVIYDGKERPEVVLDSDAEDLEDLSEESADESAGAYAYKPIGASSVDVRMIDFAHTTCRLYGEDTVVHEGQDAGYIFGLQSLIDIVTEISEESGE
Method in brief: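 The inhibitory activity against human IP6K2 was measured with Promega's ADP-Glo Kinase Assay in 384 well plates. Test compound, diluted in assay buffer (20 mM HEPES (pH 7.5), 6 mM MgCl2, 0.01% Tween-20, 1 mM DTT), was added at 2 μL. Adding 2 μL of diluted enzyme started the reaction, which ran for 60 min at room temperature. Next, 3 μL ADP-Glo solution (30 min) and 6 μL Kinase-Detection solution (60 min) were added, and luminescence was read on an Envision plate reader.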

human IP6K3 = target: T3, human IP6K3 (Homo sapiens, UniProt Q96PC2); experiment: IP6K enzyme inhibitory assay (ADP-Glo Kinase Assay), human IP6K3; conditions: compound concentration 0.1 μM; read-out: ADP-Glo method inhibitory rate (%) human IP6K3
T3 construct: human IP6K3 (1-410) gene; made in house; host or cells: BL21 (DE3) Escherichia coli
T3 sequence (Q96PC2 1-410): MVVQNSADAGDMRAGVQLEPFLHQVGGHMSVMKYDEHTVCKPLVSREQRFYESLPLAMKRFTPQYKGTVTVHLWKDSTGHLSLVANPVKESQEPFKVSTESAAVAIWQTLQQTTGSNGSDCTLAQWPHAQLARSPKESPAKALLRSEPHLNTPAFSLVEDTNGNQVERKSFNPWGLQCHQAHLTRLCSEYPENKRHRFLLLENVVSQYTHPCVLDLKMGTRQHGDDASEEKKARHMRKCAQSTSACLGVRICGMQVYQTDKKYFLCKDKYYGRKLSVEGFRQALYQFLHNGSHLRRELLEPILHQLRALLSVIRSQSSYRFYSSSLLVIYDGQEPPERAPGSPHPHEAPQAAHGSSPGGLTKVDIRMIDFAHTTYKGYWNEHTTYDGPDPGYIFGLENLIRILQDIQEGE
Method in brief: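 Recombinant human IP6K (IP6K3 residues 1-410, E. coli, Ni-NTA purified) incubated with compound in 20 mM HEPES pH 7.5, 6 mM MgCl2, 0.01% Tween-20, 1 mM DTT for 60 min at room temperature. ADP formed read as luminescence by ADP-Glo.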

T1 sequence (Q92551 whole entry): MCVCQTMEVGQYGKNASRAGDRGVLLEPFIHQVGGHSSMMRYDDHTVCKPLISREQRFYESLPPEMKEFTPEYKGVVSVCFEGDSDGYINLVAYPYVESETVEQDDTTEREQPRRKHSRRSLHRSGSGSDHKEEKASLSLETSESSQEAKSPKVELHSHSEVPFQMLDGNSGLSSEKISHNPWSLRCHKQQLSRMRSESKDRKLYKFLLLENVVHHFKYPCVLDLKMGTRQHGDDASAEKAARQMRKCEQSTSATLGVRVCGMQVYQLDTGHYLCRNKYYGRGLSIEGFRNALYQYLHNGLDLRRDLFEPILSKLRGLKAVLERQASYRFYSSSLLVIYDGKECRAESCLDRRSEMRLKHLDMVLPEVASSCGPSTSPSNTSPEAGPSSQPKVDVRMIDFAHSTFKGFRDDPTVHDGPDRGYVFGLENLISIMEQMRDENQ

| SMILES | inhibition at 0.1 µM (human IP6K1) [%] | inhibition at 0.1 µM (human IP6K2) [%] | inhibition at 0.1 µM (human IP6K3) [%] |
| --- | --- | --- | --- |
| O=C(O)c1ccc2c(c1)[C@]1(CC[C@@H](Oc3ccc(F)c(F)c3)CC1)C(=O)N2 [Example 55, (1r,4r)-4-(3,4-difluorophenoxy)-2′-oxo-1′,2′-dihydrospiro[cyclohexane-1,3′-indole]-5′-carboxylic acid] | 96 | 95 | 99 |
| O=C(O)c1ccc2c(c1)[C@]1(CC[C@@H](Oc3cc(F)cc(F)c3)CC1)C(=O)N2 [Example 58, (1r,4r)-4-(3,5-difluorophenoxy)-2′-oxo-1′,2′-dihydrospiro[cyclohexane-1,3′-indole]-5′-carboxylic acid] | 72 | 83 | 90 |
| O=C(O)c1ccc2c(c1)[C@]1(CC[C@@H](Oc3cc(F)cc(Cl)c3)CC1)C(=O)N2 [Example 64, (1r,4r)-4-(3-chloro-5-fluorophenoxy)-2′-oxo-1′,2′-dihydrospiro[cyclohexane-1,3′-indole]-5′-carboxylic acid] | 80 | 93 | 94 |
| O=C(O)c1ccc2c(c1)[C@]1(CC[C@@H](Oc3ccc(Cl)cc3F)CC1)C(=O)N2 [Example 66, (1r,4r)-4-(4-chloro-2-fluorophenoxy)-2′-oxo-1′,2′-dihydrospiro[cyclohexane-1,3′-indole]-5′-carboxylic acid] | 99 | 100 | 96 |
| O=C(O)c1ccc2c(c1)[C@]1(CC[C@@H](Oc3ccc(F)c(Cl)c3)CC1)C(=O)N2 [Example 67, (1r,4r)-4-(3-chloro-4-fluorophenoxy)-2′-oxo-1′,2′-dihydrospiro[cyclohexane-1,3′-indole]-5′-carboxylic acid] | 93 | 98 | 97 |
| O=C(O)c1ccc2c(c1)[C@]1(CC[C@@H](Oc3ccc(Cl)c(F)c3)CC1)C(=O)N2 [Example 69, (1r,4r)-4-(4-chloro-3-fluorophenoxy)-2′-oxo-1′,2′-dihydrospiro[cyclohexane-1,3′-indole]-5′-carboxylic acid] | 100 | 100 | 96 |
| N#Cc1cc(O[C@H]2CC[C@@]3(CC2)C(=O)Nc2ccc(C(=O)O)cc23)ccc1Cl [Example 71, (1r,4r)-4-(4-chloro-3-cyanophenoxy)-2′-oxo-1′,2′-dihydrospiro[cyclohexane-1,3′-indole]-5′-carboxylic acid] | 88 | 90 | 95 |
| N#Cc1ccc(O[C@H]2CC[C@@]3(CC2)C(=O)Nc2ccc(C(=O)O)cc23)c(Cl)c1 [Example 72, (1r,4r)-4-(2-chloro-4-cyanophenoxy)-2′-oxo-1′,2′-dihydrospiro[cyclohexane-1,3′-indole]-5′-carboxylic acid] | 99 | 97 | 97 |
| N#Cc1ccc(O[C@H]2CC[C@@]3(CC2)C(=O)Nc2ccc(C(=O)O)cc23)cc1Cl [Example 73, (1r,4r)-4-(3-chloro-4-cyanophenoxy)-2′-oxo-1′,2′-dihydrospiro[cyclohexane-1,3′-indole]-5′-carboxylic acid] | 98 | 97 | 91 |
| O=C(O)c1ccc2c(c1)[C@]1(CC[C@@H](Oc3ccccc3C(F)(F)F)CC1)C(=O)N2 [Example 74, (1r,4r)-2′-oxo-4-(2-(trifluoromethyl)phenoxy)-1′,2′-dihydrospiro[cyclohexane-1,3′-indole]-5′-carboxylic acid] | 93 | 92 | 92 |

Now from value to compound:

| inhibition at 0.1 µM (human IP6K1) [%] | inhibition at 0.1 µM (human IP6K2) [%] | inhibition at 0.1 µM (human IP6K3) [%] | SMILES |
| --- | --- | --- | --- |
| 97 | 92 | 99 | O=C(O)c1ccc2c(c1)[C@]1(CC[C@@H](Oc3cc(F)ccc3F)CC1)C(=O)N2 [Example 56, (1r,4r)-4-(2,5-difluorophenoxy)-2′-oxo-1′,2′-dihydrospiro[cyclohexane-1,3′-indole]-5′-carboxylic acid] |
| 99 | 97 | 100 | O=C(O)c1ccc2c(c1)[C@]1(CC[C@@H](Oc3ccc(F)cc3F)CC1)C(=O)N2 [Example 57, (1r,4r)-4-(2,4-difluorophenoxy)-2′-oxo-1′,2′-dihydrospiro[cyclohexane-1,3′-indole]-5′-carboxylic acid] |
| 87 | 86 | 97 | O=C(O)c1ccc2c(c1)[C@]1(CC[C@@H](Oc3cccc(F)c3F)CC1)C(=O)N2 [Example 59, (1r,4r)-4-(2,3-difluorophenoxy)-2′-oxo-1′,2′-dihydrospiro[cyclohexane-1,3′-indole]-5′-carboxylic acid] |
| 87 | 90 | 98 | N#Cc1cccc(O[C@H]2CC[C@@]3(CC2)C(=O)Nc2ccc(C(=O)O)cc23)c1F [Example 60, (1r,4r)-4-(3-cyano-2-fluorophenoxy)-2′-oxo-1′,2′-dihydrospiro[cyclohexane-1,3′-indole]-5′-carboxylic acid] |
| 100 | 95 | 100 | N#Cc1ccc(O[C@H]2CC[C@@]3(CC2)C(=O)Nc2ccc(C(=O)O)cc23)cc1F [Example 61, (1r,4r)-4-(4-cyano-3-fluorophenoxy)-2′-oxo-1′,2′-dihydrospiro[cyclohexane-1,3′-indole]-5′-carboxylic acid] |
| 95 | 91 | 99 | N#Cc1cccc(F)c1O[C@H]1CC[C@@]2(CC1)C(=O)Nc1ccc(C(=O)O)cc12 [Example 62, (1r,4r)-4-(2-cyano-6-fluorophenoxy)-2′-oxo-1′,2′-dihydrospiro[cyclohexane-1,3′-indole]-5′-carboxylic acid] |
| 69 | 87 | 96 | N#Cc1c(F)cccc1O[C@H]1CC[C@@]2(CC1)C(=O)Nc1ccc(C(=O)O)cc12 [Example 63, (1r,4r)-4-(2-cyano-3-fluorophenoxy)-2′-oxo-1′,2′-dihydrospiro[cyclohexane-1,3′-indole]-5′-carboxylic acid] |
| 93 | 95 | 97 | O=C(O)c1ccc2c(c1)[C@]1(CC[C@@H](Oc3cc(F)ccc3Cl)CC1)C(=O)N2 [Example 65, (1r,4r)-4-(2-chloro-5-fluorophenoxy)-2′-oxo-1′,2′-dihydrospiro[cyclohexane-1,3′-indole]-5′-carboxylic acid] |
| 93 | 98 | 98 | O=C(O)c1ccc2c(c1)[C@]1(CC[C@@H](Oc3ccc(F)cc3Cl)CC1)C(=O)N2 [Example 68, (1r,4r)-4-(2-chloro-4-fluorophenoxy)-2′-oxo-1′,2′-dihydrospiro[cyclohexane-1,3′-indole]-5′-carboxylic acid] |
| 99 | 99 | 99 | COc1ccc(O[C@H]2CC[C@@]3(CC2)C(=O)Nc2ccc(C(=O)O)cc23)c(C#N)c1 [Example 70, (1r,4r)-4-(2-cyano-4-methoxyphenoxy)-2′-oxo-1′,2′-dihydrospiro[cyclohexane-1,3′-indole]-5′-carboxylic acid] |
